Among the data in ChEMBL document CHEMBL1130967, “Modulation of apoptosis in human lymphocytes by adenosine analogues” (1998) are Apoptotic cells values, retold here.

Structures are written as SMILES.

Format in all cases: functional
A short description of test [1]: Percentage of apoptotic cells in human peripheral blood mononuclear cells after 72 hour incubation at the concentration 60 uM. Particulars: at 60 µM.
A short description of test [2]: Percentage of apoptotic cells in human peripheral blood mononuclear cells after 72 hour incubation at the concentration 1 uM. Conditions: at 1 µM.
Test [3] can be described thus: Percentage of apoptotic cells in human peripheral blood mononuclear cells after 72 hour incubation at the concentration 10 uM. Conditions: at 10 µM.
Test [4] can be described thus: Percentage of apoptotic cells in human peripheral blood mononuclear cells after 72 hour incubation at the concentration 30 uM. Particulars: at 30 µM.

Turning to `Nc1ccnc2c1ncn2[C@@H]1O[C@H](CO)[C@@H](O)[C@H]1O`, the Apoptotic cells in test [1] came out at 10.7%; in test [2], 8%; in test [3], 16.6%; in test [4] it was 12.8%.
For `Nc1nc(Cl)nc2c1ncn2C1CCC(CO)O1` (stereo not given) the same measures were 11.4%, 4.7%, 8.5% and 9.6%.
For `OC[C@H]1O[C@@H](n2cnc3c(NC4CCCCCC4)ncnc32)C[C@@H]1O` the same measures were 11.1%, 8%, 9.4% and 9.8%.
As to `OC[C@H]1O[C@@H](n2cnc3c(NC4CCCCCC4)nc(Cl)nc32)C[C@@H]1O`, the Apoptotic cells stood at 16.3% in test [1], 8.2% in test [2], 7.9% in test [3] and 12.3% in test [4].
For `OC[C@H]1O[C@@H](n2cnc3c(NC4CCCC4)ncnc32)C[C@@H]1O` the same measures were 8.7%, 6.7%, 7.9% and 7.1%.
The matching figures for `OC[C@H]1O[C@@H](n2cnc3c(NC4CCCC4)nc(Cl)nc32)C[C@@H]1O`: 38.8%, 4.7%, 10% and 18.8%.
The matching figures for `OC[C@H]1O[C@@H](n2cnc3c(NC4CC4)ncnc32)C[C@@H]1O`: 10.6%, 7.1%, 9.5% and 9.5%.
As for `OC[C@H]1O[C@@H](n2cnc3c(NC4CC4)nc(Cl)nc32)C[C@@H]1O`, the Apoptotic cells in test [1] amounted to 24.7%; in test [2], 7.8%; in test [3], 7.7%; in test [4], 17.9%.
`Nc1nccc2c1ncn2[C@@H]1O[C@H](CO)[C@@H](O)[C@H]1O`: the Apoptotic cells is recorded as 10.7% in test [1], 9.9% in test [2], 6.5% in test [3] and 11.9% in test [4].
For `Nc1cc(Cl)nc2c1ncn2[C@@H]1O[C@H](CO)[C@@H](O)[C@H]1O`, the Apoptotic cells was 12.1% in test [1], 10.2% in test [2], 10.4% in test [3] and 11.1% in test [4].
The matching figures for `Nc1nc(I)nc2c1ncn2[C@@H]1O[C@H](CO)[C@@H](O)[C@H]1O`: 12.2%, 9.1%, 12.1% and 12%.
For `Nc1nc(Cl)nc2c1ncn2C1OC(CO)CC1O` (stereo not given) the same measures were 10.4%, 7.7%, 13% and 11.4%.
The matching figures for `OC[C@H]1O[C@@H](n2cnc3c(NC4CCCC4)nc(Cl)nc32)[C@H](O)[C@@H]1O`: 11%, 5.4%, 10.4% and 9.6%.
As for `Nc1nc(Cl)nc2c1ncn2[C@@H]1O[C@H](CO)[C@@H](O)[C@H]1O`, the Apoptotic cells was found to be 91.9% in test [1], 8.8% in test [2], 41.8% in test [3] and 82.7% in test [4].
For `OC[C@H]1O[C@@H](n2cnc3c(NC4CCCC4)cc(Cl)nc32)C[C@@H]1O` the same measures were 13.9%, 8.6%, 9.7% and 12%.
For the compound `OC[C@H]1O[C@@H](n2cnc3c(NC4CC4)cc(Cl)nc32)C[C@@H]1O`, the Apoptotic cells in test [1] came out at 11.4%; in test [2] it was 7.3%; in test [3], 10.4%; in test [4] it was 10.8%.
The matching figures for `OC[C@H]1O[C@@H](n2cnc3c(NC4CCCCCC4)ccnc32)C[C@@H]1O`: 9.6%, 7.7%, 8.1% and 8.9%.
For `OC[C@H]1O[C@@H](n2cnc3c(NC4CCCCCC4)cc(Cl)nc32)C[C@@H]1O` the same measures were 10.5%, 7.4%, 7.9% and 9.6%.
Turning to `OC[C@H]1O[C@@H](n2cnc3c(NC4CCCC4)ccnc32)C[C@@H]1O`, the Apoptotic cells worked out at 9.9% in test [1], 9.8% in test [2], 9.8% in test [3] and 9.5% in test [4].
Turning to `Nc1nc(Cl)cc2c1ncn2[C@H]1C[C@H](O)[C@@H](CO)O1`, the Apoptotic cells is reported as 59.2% in test [1], 16.6% in test [2], 20.2% in test [3] and 34.5% in test [4].
On to `OC[C@H]1O[C@@H](n2cnc3c(NC4CCCC4)nc(Cl)cc32)C[C@@H]1O`, for which the Apoptotic cells is 15.2% in test [1], 13.1% in test [2], 13.5% in test [3] and 14.9% in test [4].
For `Nc1cc(Cl)nc2c1ncn2[C@H]1C[C@H](O)[C@@H](CO)O1`, the Apoptotic cells in test [1] amounted to 10.6%; in test [2], 5%; in test [3] it was 8.7%; in test [4] it was 9.8%.
As for `CNC(=O)C1OC(n2cnc3c(N)nc(Cl)nc32)CC1O` (stereo not given), the Apoptotic cells in test [1] came out at 10.7%; in test [2], 4.5%; in test [3], 8.1%; in test [4], 10.4%.
For `Nc1nc(Cl)cc2c1ncn2C1O[C@H](CO)[C@@H](O)[C@H]1O` (stereo not given in full) the same measures were 10.3%, 9.6%, 9% and 9.6%.
On to `Nc1nc(Cl)nc2c1ncn2[C@H]1C[C@H](O)[C@@H](CO)O1` [CLADRIBINE], for which the Apoptotic cells in test [1] is recorded as 94.7%; in test [2] it was 91%; in test [3], 91.2%; in test [4] it was 93.8%.
